Experimental data reported in patent US6303619A, “Meta-substituted acidic 8-phenylxanthine antagonists of A3 human adenosine receptors” (priority 1998, dated 2001).

Assays:
[1] = biological target: T1, human A2A adenosine receptor (Homo sapiens, UniProt P29274); experiment: competition binding, recombinant human A2A adenosine receptor; conditions: A3 versus A2A
T1 construct: expressed in transfected cells; host or cells: COS7 cells
Description: Monolayer cell culture of transfected COS7 cells were dissociated with 1 mM EDTA in phosphate buffered saline and resuspended in 5 mM Tris, pH7.6/10 mM MgCl2. The cells were subjected to freeze-thaw lysis and the suspension was homogenized in a glass dounce homogenizer. The membranes were pelleted, resuspended in binding buffer, 50 mM Tris pH 7.6/10 mM MgCl2 and incubated with adenosine deaminase before the binding assay. The binding assay was performed by incubating 50-100 Fg of membranes with increasing concentrations of radiolabeled adenosine agonists. Bound ligand was separated from free ligand by filtration on a SKATRON CELL […] equipped with a receptor binding filtermat. Bound radioactivity was measured by scintillation counting. Substances which bind to or enhance binding to expressed human adenosine receptors in COS and CHO cells can be identified in competition binding assays with radiolabeled adenosine or xanthine analogs. […] Protein concentration was determined by tie method of Bradford ((1976) Anal. Biochem. 72: 248-250). […] Bound radioactivity was measured by scintillation counting in READY SAFE SCINTILLATION COCKTAIL (BECKMAN). […] Non-specific binding was determined in the presence of 100 FM CPA. Bound radioactivity was measured by scintillation counting in READY SAFE LIQUID SCINTILLATION COCKTAIL (BECKMAN).

[2] = biological target: T2, human A2B adenosine receptor (Homo sapiens, UniProt P29275); experiment: competition binding, recombinant human A2B adenosine receptor; conditions: A3 versus A2B
T2 construct: expressed in transfected cells; host or cells: COS7 cells
T2 sequence (P29275 1-332): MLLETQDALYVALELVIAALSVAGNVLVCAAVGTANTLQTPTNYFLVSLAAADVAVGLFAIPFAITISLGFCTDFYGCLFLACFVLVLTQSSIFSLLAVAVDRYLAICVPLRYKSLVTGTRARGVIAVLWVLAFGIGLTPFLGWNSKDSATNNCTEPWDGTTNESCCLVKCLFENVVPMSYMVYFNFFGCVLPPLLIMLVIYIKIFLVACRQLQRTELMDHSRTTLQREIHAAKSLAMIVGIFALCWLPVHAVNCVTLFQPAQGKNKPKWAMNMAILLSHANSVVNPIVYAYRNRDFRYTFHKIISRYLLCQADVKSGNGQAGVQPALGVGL
Description: Monolayer cell culture of transfected COS7 cells were dissociated with 1 mM EDTA in phosphate buffered saline and resuspended in 5 mM Tris, pH7.6/10 mM MgCl2. The cells were subjected to freeze-thaw lysis and the suspension was homogenized in a glass dounce homogenizer. The membranes were pelleted, resuspended in binding buffer, 50 mM Tris pH 7.6/10 mM MgCl2 and incubated with adenosine deaminase before the binding assay. The binding assay was performed by incubating 50-100 Fg of membranes with increasing concentrations of radiolabeled adenosine agonists. Bound ligand was separated from free ligand by filtration on a SKATRON CELL […] equipped with a receptor binding filtermat. Bound radioactivity was measured by scintillation counting. Substances which bind to or enhance binding to expressed human adenosine receptors in COS and CHO cells can be identified in competition binding assays with radiolabeled adenosine or xanthine analogs. […] Membranes were prepared from transiently transfected COS7 cells 48 h after transfection or from G418-selected stably transfected CHO or HEK 293 cells. […] Protein concentration was determined by tie method of Bradford ((1976) Anal. Biochem. 72: 248-250). […] Bound radioactivity was measured by scintillation counting. Non-specific binding was measured on membranes prepared from non-transfected COS7 cells.

T1 sequence (P29274 whole entry): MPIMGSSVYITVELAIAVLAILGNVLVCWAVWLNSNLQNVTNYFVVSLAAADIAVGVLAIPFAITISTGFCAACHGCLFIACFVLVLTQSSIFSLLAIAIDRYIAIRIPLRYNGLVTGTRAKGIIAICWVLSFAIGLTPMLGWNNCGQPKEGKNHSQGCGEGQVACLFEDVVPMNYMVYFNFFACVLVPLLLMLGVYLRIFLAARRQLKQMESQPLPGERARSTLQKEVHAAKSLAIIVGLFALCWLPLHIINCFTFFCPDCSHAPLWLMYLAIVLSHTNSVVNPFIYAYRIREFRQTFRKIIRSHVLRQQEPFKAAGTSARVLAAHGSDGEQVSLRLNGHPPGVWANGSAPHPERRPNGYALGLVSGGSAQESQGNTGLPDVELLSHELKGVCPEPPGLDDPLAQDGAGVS

fold selectivity for A3 compared to human A2A [1]: 18 fold
fold selectivity for A3 compared to human A2B [2]: 70 fold
SMILES: CCCn1c(=O)c2[nH]c(-c3cccc(C=CC(=O)O)c3)nc2n(CCC)c1=O [BW-3911]
